# In ChEMBL document CHEMBL3390838, “Synthesis, anti-proliferative and proapoptotic activity of novel oleanolic acid azaheterocyclic derivatives” (Medchemcomm, 2012):
# Active and inactive are the calls of the source. The rule behind the calls is not given here.
# Experiments:
# MDA-MB-231 = experiment: Cytotoxicity against human MDA-MB-231 cells after 72 hrs by MTT assay; assay type: functional, cell-based; details: MDA-MB-231, 72 h
# [1] = Cytotoxicity against human Bel7404 cells after 72 hrs by MTT assay; assay type: functional, cell-based; details: BEL-7404, 72 h
# K562 = experiment: Cytotoxicity against human K562 cells after 72 hrs by MTT assay; assay type: functional, cell-based; details: K562, 72 h
# [2] = Cytotoxicity against human HL60 cells after 72 hrs by MTT assay; assay type: functional, cell-based; details: HL-60, 72 h
# BEL-7404 tumor cell line [3] = experiment: Induction of apoptosis in human Bel7404 cells assessed as increase in procaspase 9 protein level at 60 uM at 24 hrs by Western blot analysis relative to control; assay type: functional
# [4] = Cell cycle arrest in human Bel7404 cells assessed as increase in G0/G1 phase after 24 hrs by PI-based flow cytometry; assay type: functional; details: BEL-7404
# BEL-7404 tumor cell line [5] = experiment: Induction of apoptosis in human Bel7404 cells assessed as decrease in procaspase 3 protein level at 60 uM at 12 hrs by Western blot analysis relative to control; assay type: functional
# [6] = Cell cycle arrest in human Bel7404 cells assessed as decrease in G2/M phase after 24 hrs by PI-based flow cytometry; assay type: functional; details: BEL-7404
# [7] = Cell cycle arrest in human Bel7404 cells assessed as accumulation at S phase at 20 uM after 24 hrs by PI-based flow cytometry ( Rvb = 43.38 % ); assay type: functional; details: BEL-7404
# BEL-7404 tumor cell line [8] = experiment: Induction of apoptosis in human Bel7404 cells assessed as increase in procaspase 9 protein level at 60 uM at 36 hrs by Western blot analysis relative to control; assay type: functional
# [9] = Cell cycle arrest in human Bel7404 cells assessed as accumulation at G2/M phase at 20 uM after 24 hrs by PI-based flow cytometry ( Rvb = 0.11 % ); assay type: functional; details: BEL-7404
# BEL-7404 tumor cell line [10] = experiment: Induction of apoptosis in human Bel7404 cells assessed as decrease in procaspase 3 protein level at 60 uM at 24 hrs by Western blot analysis relative to control; assay type: functional
# BEL-7404 tumor cell line [11] = experiment: Induction of apoptosis in human Bel7404 cells assessed as reduction in Bcl2 protein expression at 60 uM at 12 hrs by Western blot analysis relative to control; assay type: functional
# [12] = Cell cycle arrest in human Bel7404 cells assessed as accumulation at G0/G1 phase at 60 uM after 24 hrs by PI-based flow cytometry ( Rvb = 56.50 % ); assay type: functional; details: BEL-7404
# BEL-7404 tumor cell line [13] = experiment: Induction of apoptosis in human Bel7404 cells assessed as increase in cytochrome c protein level at 60 uM at 36 hrs by Western blot analysis relative to control; assay type: functional
# BEL-7404 tumor cell line [14] = experiment: Induction of apoptosis in human Bel7404 cells assessed as increase in procaspase 9 protein level at 60 uM at 48 hrs by Western blot analysis relative to control; assay type: functional
# BEL-7404 tumor cell line [15] = experiment: Induction of apoptosis in human Bel7404 cells assessed as decrease in procaspase 3 protein level at 60 uM at 48 hrs by Western blot analysis relative to control; assay type: functional
# BEL-7404 tumor cell line [16] = experiment: Induction of apoptosis in human Bel7404 cells assessed as increase in Bax protein expression at 60 uM at 24 hrs by Western blot analysis relative to control; assay type: functional
# BEL-7404 tumor cell line [17] = experiment: Induction of apoptosis in human Bel7404 cells assessed as increase in Bax protein expression at 60 uM at 36 hrs by Western blot analysis relative to control; assay type: functional
# BEL-7404 tumor cell line [18] = experiment: Induction of apoptosis in human Bel7404 cells assessed as decrease in procaspase 3 protein level at 60 uM at 36 hrs by Western blot analysis relative to control; assay type: functional
# [19] = Cytotoxicity against human L02 cells at 20 to 160 uM after 72 hrs by MTT assay; assay type: cell-based; details: l02, 72 h
# BEL-7404 tumor cell line [20] = experiment: Induction of apoptosis in human Bel7404 cells assessed as apoptotic bodies at 60 uM after 48 hrs using Hoechst staining by fluorescence microscopy; assay type: functional, cell-based
# BEL-7404 tumor cell line [21] = experiment: Induction of apoptosis in human Bel7404 cells assessed as increase in cytochrome c protein level at 60 uM at 48 hrs by Western blot analysis relative to control; assay type: functional
# BEL-7404 tumor cell line [22] = experiment: Induction of apoptosis in human Bel7404 cells assessed as reduction in Bcl2 protein expression at 60 uM at 24 hrs by Western blot analysis relative to control; assay type: functional
# [23] = Cell cycle arrest in human Bel7404 cells assessed as accumulation at G0/G1 phase at 20 uM after 24 hrs by PI-based flow cytometry ( Rvb = 56.50 % ); assay type: functional; details: BEL-7404
# BEL-7404 tumor cell line [24] = experiment: Induction of apoptosis in human Bel7404 cells assessed as membrane blebbing at 60 uM after 48 hrs using Hoechst staining by fluorescence microscopy; assay type: functional, cell-based
# BEL-7404 tumor cell line [25] = experiment: Induction of apoptosis in human Bel7404 cells assessed as increase in cytochrome c protein level at 60 uM at 24 hrs by Western blot analysis relative to control; assay type: functional
# [26] = Cell cycle arrest in human Bel7404 cells assessed as accumulation at S phase at 40 uM after 24 hrs by PI-based flow cytometry ( Rvb = 43.38 % ); assay type: functional; details: BEL-7404
# [27] = Cell cycle arrest in human Bel7404 cells assessed as decrease in S phase after 24 hrs by PI-based flow cytometry; assay type: functional; details: BEL-7404
# BEL-7404 tumor cell line [28] = experiment: Induction of apoptosis in human Bel7404 cells assessed as increase in procaspase 9 protein level at 60 uM at 12 hrs by Western blot analysis relative to control; assay type: functional
# BEL-7404 tumor cell line [29] = experiment: Induction of apoptosis in human Bel7404 cells assessed as reduction in Bcl2 protein expression at 60 uM at 48 hrs by Western blot analysis relative to control; assay type: functional
# BEL-7404 tumor cell line [30] = experiment: Induction of apoptosis in human Bel7404 cells assessed as increase in Bax protein expression at 60 uM at 12 hrs by Western blot analysis relative to control; assay type: functional
# [31] = Cell cycle arrest in human Bel7404 cells assessed as accumulation at G2/M phase at 60 uM after 24 hrs by PI-based flow cytometry ( Rvb = 0.11 % ); assay type: functional; details: BEL-7404
# BEL-7404 tumor cell line [32] = experiment: Induction of apoptosis in human Bel7404 cells assessed as reduction in Bcl2 protein expression at 60 uM at 36 hrs by Western blot analysis relative to control; assay type: functional
# BEL-7404 tumor cell line [33] = experiment: Induction of apoptosis in human Bel7404 cells assessed as increase in Bax protein expression at 60 uM at 48 hrs by Western blot analysis relative to control; assay type: functional
# [34] = Cell cycle arrest in human Bel7404 cells assessed as accumulation at G2/M phase at 40 uM after 24 hrs by PI-based flow cytometry ( Rvb = 0.11 % ); assay type: functional; details: BEL-7404
# BEL-7404 tumor cell line [35] = experiment: Induction of apoptosis in human Bel7404 cells assessed as nuclear condensation at 60 uM after 48 hrs using Hoechst staining by fluorescence microscopy; assay type: functional, cell-based
# [36] = Cell cycle arrest in human Bel7404 cells assessed as accumulation at G0/G1 phase at 40 uM after 24 hrs by PI-based flow cytometry ( Rvb = 56.50 % ); assay type: functional; details: BEL-7404
# [37] = Cell cycle arrest in human Bel7404 cells assessed as accumulation at S phase at 60 uM after 24 hrs by PI-based flow cytometry ( Rvb = 43.38 % ); assay type: functional; details: BEL-7404
# BEL-7404 tumor cell line [38] = experiment: Induction of apoptosis in human Bel7404 cells assessed as nuclear shrinking at 60 uM after 48 hrs using Hoechst staining by fluorescence microscopy; assay type: functional, cell-based
# BEL-7404 tumor cell line [39] = experiment: Induction of apoptosis in human Bel7404 cells assessed as increase in cytochrome c protein level at 60 uM at 12 hrs by Western blot analysis relative to control; assay type: functional
smiles,measurement,setting,value
CC1(C)CC[C@]2(C(=O)O)CC[C@]3(C)C(=CC[C@@H]4[C@@]5(C)Cc6cnoc6C(C)(C)[C@@H]5CC[C@]43C)[C@@H]2C1,IC50,MDA-MB-231,53.7 µM
same,IC50,[1],36 µM
same,IC50,K562,11.4 µM
same,IC50,[2],42.1 µM
CC1(C)CC[C@]2(C(=O)O)CC[C@]3(C)C(=CC[C@@H]4[C@@]5(C)CC[C@H](O)C(C)(C)[C@@H]5CC[C@]43C)[C@@H]2C1 [OLEANOLIC_ACID],IC50,MDA-MB-231,67.9 µM
same,IC50,[1],57.9 µM
same,IC50,K562,58.1 µM
same,IC50,[2],54.6 µM
CC(=O)n1nc2c(n1)C(C)(C)[C@@H]1CC[C@]3(C)[C@H](CC=C4[C@@H]5CC(C)(C)CC[C@]5(C(=O)O)CC[C@]43C)[C@@]1(C)C2,IC50,MDA-MB-231,61.7 µM
same,IC50,[1],45.1 µM
same,IC50,K562,67.6 µM
same,IC50,[2],76.6 µM
CC1(C)CC[C@]2(C(=O)O)CC[C@]3(C)C(=CC[C@@H]4[C@@]5(C)Cc6cnc(N)nc6C(C)(C)[C@@H]5CC[C@]43C)[C@@H]2C1,IC50,MDA-MB-231,44.8 µM
same,fold change (FC),BEL-7404 tumor cell line [3],0.6
same,Activity,[4],Dose-dependent effect
same,fold change (FC),BEL-7404 tumor cell line [5],0.8
same,Activity,[6],Dose-dependent effect
same,Activity,[7],41.6%
same,fold change (FC),BEL-7404 tumor cell line [8],0.2
same,Activity,[9],0%
same,fold change (FC),BEL-7404 tumor cell line [10],0.6
same,IC50,[1],35.1 µM
same,fold change (FC),BEL-7404 tumor cell line [11],1
same,Activity,[12],73%
same,fold change (FC),BEL-7404 tumor cell line [13],2.7
same,fold change (FC),BEL-7404 tumor cell line [14],0.1
same,fold change (FC),BEL-7404 tumor cell line [15],0.1
same,fold change (FC),BEL-7404 tumor cell line [16],1.5
same,fold change (FC),BEL-7404 tumor cell line [17],7.6
same,fold change (FC),BEL-7404 tumor cell line [18],0.4
same,Activity,[19],Non-toxic
same,Activity,BEL-7404 tumor cell line [20],Active
same,fold change (FC),BEL-7404 tumor cell line [21],7
same,fold change (FC),BEL-7404 tumor cell line [22],0.5
same,Activity,[23],58.4%
same,Activity,BEL-7404 tumor cell line [24],Active
same,fold change (FC),BEL-7404 tumor cell line [25],2.6
same,Activity,[26],37.1%
same,Activity,[27],Dose-dependent effect
same,fold change (FC),BEL-7404 tumor cell line [28],0.7
same,fold change (FC),BEL-7404 tumor cell line [29],0.4
same,fold change (FC),BEL-7404 tumor cell line [30],1.5
same,Activity,[31],0%
same,IC50,K562,39.3 µM
same,fold change (FC),BEL-7404 tumor cell line [32],0.4
same,IC50,[2],42.6 µM
same,fold change (FC),BEL-7404 tumor cell line [33],7.7
same,Activity,[34],0%
same,Activity,BEL-7404 tumor cell line [35],Active
same,Activity,[36],62.9%
same,Activity,[37],27%
same,Activity,BEL-7404 tumor cell line [38],Active
same,fold change (FC),BEL-7404 tumor cell line [39],1.3
CC1(C)CC[C@]2(C(=O)O)CC[C@]3(C)C(=CC[C@@H]4[C@@]5(C)Cc6nonc6C(C)(C)[C@@H]5CC[C@]43C)[C@@H]2C1,IC50,MDA-MB-231,53.6 µM
same,IC50,[1],30.9 µM
same,IC50,K562,49.7 µM
same,IC50,[2],46.1 µM
